In one data set the test system is A549 lung cancer cells. Put plainly: MTT cell viability assay, A549. It is filed as cell-based, human. As to conditions: mean of three independent experiments (N = 9). As to the method:
(§1) To evaluate the effect of the examined series on the viability of different lung cancer cells, MTT assay was conducted after exposing A549, H1299, and H661 cell lines to increasing concentrations of each compound for 48 h. […] Table 2 and Supplementary Figure S92 (see Supplementary Materials) show the 50% inhibitory concentration (IC50) values for the compounds under investigation in A549, H1299, and H661 lung cancer cells.
(§2) The human lung cancer cell lines A549, H1299 and H661 and the normal cells dermal fibroblasts were obtained from the American Type Culture Collection ATCC. Cells were cultured as a monolayer at seeding density of 8 × 10^3 cells per well in high glucose Dulbecco’s modified eagle medium (DMEM) (Invitrogen, USA), as previously described. The in vitro assessment of the antitumorigenic activities related to the studied compounds was undertaken using the 3-(4,5-dimethylthiazol-2yl)-2,5-diphenyl tetrazolium bromide (MTT) colorimetric assay, as previously reported. The compounds under investigation were tested in three triplicates of each concentration in three independent assays for a total of nine replicates. Both positive (cisplatin) and negative (untreated culture) controls were applied under the same experimental conditions. Cells were cultured for 48 h at 37 °C in a 5% CO2 incubator. Afterwards, MTT assay was carried out where viable cell count was determined based on the amount of formazan crystals, as verified by the absorbance at 490 nm.
(§3) Data was analyzed by Graphpad Prism software (Graphpad Software Inc. Jolla, CA, USA) for the determination of IC50 value. All data were expressed as the average of triplicate experiments.

A further data set has as its system H1299 lung cancer cells. Put plainly: MTT cell viability assay, H1299. The format is cell-based, human. The note with it: mean of three independent experiments (N = 9). As to the method:
as §1, §2, §3
On the technique in general: Tetrazolium assays rely on reduction of a dye to a coloured formazan, in cell work by metabolically active cells.

A further data set relates to H661 lung cancer cells. Put plainly: MTT cell viability assay, H661. It is filed as cell-based, human. The note with it: mean of three independent experiments (N = 9). As to the method:
as §1, §2, §3

In another data set the test system is human dermal fibroblasts. The experiment in a line: MTT cell viability assay, normal dermal fibroblasts. It is filed as cell-based. As to conditions: 48 h, noncancerous human dermal fibroblasts. As for the experimental part:
as §1, §2, §3

Structures are written as SMILES. Structures can show the parent of a compound that is named as a salt.

On to `CCCCCCCCCCCC[n+]1ccc(C(=O)NN=Cc2ccc[n+](CCCCCCCCCCCC)c2)cc1.[I-].[I-]` [Compound 12, 1-Dodecyl-3-((2-(1-dodecylpyridin-1-ium-4-carbonyl)hydrazono)methyl)pyridin-1-ium Iodide], for which the melting point was 63 to 65 °C. Also, inhibition with A549 lung cancer cells (48 h) was half-maximal at 26.9 µM (IC50). In the data set on H1299 lung cancer cells (48 h), this molecule registered an IC50 of 30.1 µM. In addition, the half-maximal inhibitory concentration (IC50) in the data set on H661 lung cancer cells (48 h) is 29.8 µM. For the same molecule, the IC50 in the data set on human dermal fibroblasts was > 300 µM.

In the case of `CCCCCCCCCCCC[n+]1ccc(C(=O)N/N=C/c2ccc[n+](CCCCCCCCCCCC)c2)cc1` [Compound 26, 11-Dodecyl-3-((2-(1-dodecylpyridin-1-ium-4-carbonyl)hydrazono)methyl)pyridin-1-ium Tetrafluoroborate], the IC50 is 44 µM in the data set on A549 lung cancer cells (Homo sapiens, A549, 48 h); 39.3 µM in the data set on H1299 lung cancer cells (Homo sapiens, NCI-H1299, 48 h); 40.4 µM with H661 lung cancer cells (Homo sapiens, NCI-H661, 48 h); > 300 µM in the data set with human dermal fibroblasts (Homo sapiens, Fibroblast).

As for `CCCCCCCCCCCC[n+]1ccc(C(=O)NN=Cc2ccc[n+](CCCCCCCCCCCC)c2)cc1` [Compound 27, 1-Dodecyl-3-((2-(1-dodecylpyridin-1-ium-4-carbonyl)hydrazono)methyl)pyridin-1-ium Trifluoroacetate], the half-maximal inhibitory concentration (IC50) with A549 lung cancer cells (Homo sapiens, A549, 48 h) is 14.3 µM; in the data set with H1299 lung cancer cells (48 h), 12.1 µM; in the data set with H661 lung cancer cells (48 h) it was 10.5 µM; in the data set with human dermal fibroblasts (Homo sapiens, Fibroblast) it was > 300 µM.

Regarding `CCCCCCCC[n+]1ccc(C(=O)NN=Cc2ccc[n+](CCCCCCCC)c2)cc1.[I-].[I-]` [Compound 9, 1-Octyl-3-((2-(1-octylpyridin-1-ium-4-carbonyl)hydrazono)methyl)pyridin-1-ium Iodide], the melting point is 82 to 84 °C. The half-maximal inhibitory concentration (IC50) with A549 lung cancer cells (48 h) amounted to 75.3 µM. In the data set with H1299 lung cancer cells (48 h), it took 64.3 µM to reach half-maximal inhibition (IC50). The half-maximal inhibitory concentration (IC50) in the data set with H661 lung cancer cells (48 h) was found to be 74.2 µM. Also, in the data set with human dermal fibroblasts, the half-inhibitory concentration (IC50) was > 300 µM.

In the case of `CCCCCCCCCCCCCCCCCC[n+]1ccc(C(=O)NN=Cc2ccc[n+](CCCCCCCCCCCCCCCCCC)c2)cc1` [Compound 35, 1-Octadecyl-3-((2-(1-octadecylpyridin-1-ium-4-carbonyl)hydrazono)methyl)pyridin-1-ium Tetrafluoroborate], the IC50 with A549 lung cancer cells (48 h) is 421 µM; in the data set on H1299 lung cancer cells (48 h), 399 µM; in the data set with H661 lung cancer cells (48 h), 382 µM; with human dermal fibroblasts it was > 1000 µM.

As for `CCCCCCCCCCCCCC[n+]1ccc(C(=O)NN=Cc2ccc[n+](CCCCCCCCCCCCCC)c2)cc1` [Compound 13, 1-Tetradecyl-3-((2-(1-tetradecylpyridin-1-ium-4-carbonyl)hydrazono)methyl)pyridin-1-ium Iodide], the half-inhibitory concentration (IC50) with A549 lung cancer cells (48 h) was 36.8 µM; with H1299 lung cancer cells (48 h), 38 µM; with H661 lung cancer cells (48 h) it was 38.2 µM; in the data set with human dermal fibroblasts, > 300 µM.

For `CCCCCCCCCCCCCCCC[n+]1ccc(C(=O)NN=Cc2ccc[n+](CCCCCCCCCCCCCCCC)c2)cc1` [Compound 14, 1-Hexadecyl-3-((2-(1-hexadecylpyridin-1-ium-4-carbonyl)hydrazono)methyl)pyridin-1-ium Iodide], the IC50 is 7.11 µM with A549 lung cancer cells (48 h), 10.1 µM in the data set with H1299 lung cancer cells (48 h), 11.2 µM in the data set with H661 lung cancer cells (48 h) and > 300 µM in the data set with human dermal fibroblasts.

On to `CCCCCCCCCCCCCCCC[n+]1ccc(C(=O)NN=Cc2ccc[n+](CCCCCCCCCCCCCCCC)c2)cc1` [Compound 33, 1-Hexadecyl-3-((2-(1-hexadecylpyridin-1-ium-4-carbonyl)hydrazono)methyl)pyridin-1-ium Trifluoroacetate], for which the half-maximal inhibitory concentration (IC50) in the data set on A549 lung cancer cells (48 h) was 87.8 µM; in the data set with H1299 lung cancer cells (48 h) it was 92.3 µM; in the data set on H661 lung cancer cells (48 h), 100 µM; in the data set with human dermal fibroblasts it was > 300 µM.

In the case of `CCCCCCCCCC[n+]1ccc(C(=O)NN=Cc2ccc[n+](CCCCCCCCCC)c2)cc1` [Compound 24, 1-Decyl-3-((2-(1-decylpyridin-1-ium-4-carbonyl)hydrazono)methyl)pyridin-1-ium Trifluoroacetate], the concentration for half-maximal inhibition (IC50) in the data set on A549 lung cancer cells (48 h) was 20 µM; with H1299 lung cancer cells (48 h), 19 µM; in the data set with H661 lung cancer cells (48 h), 18.1 µM; in the data set with human dermal fibroblasts, > 300 µM.

Take `CCCCCCCC[n+]1ccc(C(=O)NN=Cc2ccc[n+](CCCCCCCC)c2)cc1` [Compound 18, 1-Octyl-3-((2-(1-octylpyridin-1-ium-4-carbonyl)hydrazono)methyl)pyridin-1-ium Trifluoroacetate]: the 50% inhibitory concentration (IC50) is 78.5 µM in the data set on A549 lung cancer cells (48 h), 71 µM in the data set on H1299 lung cancer cells (48 h), 74.5 µM with H661 lung cancer cells (48 h) and > 300 µM with human dermal fibroblasts.

Consider `CCCCCCCCCCCCCCCC[n+]1ccc(C(=O)NN=Cc2ccc[n+](CCCCCCCCCCCCCCCC)c2)cc1` [Compound 32, 1-Hexadecyl-3-((2-(1-hexadecylpyridin-1-ium-4-carbonyl)hydrazono)methyl)pyridin-1-ium Tetrafluoroborate], for which the IC50 with A549 lung cancer cells (48 h) was 114 µM; in the data set with H1299 lung cancer cells (48 h) it was 108 µM; in the data set with H661 lung cancer cells (48 h), 104 µM; in the data set with human dermal fibroblasts (Homo sapiens, Fibroblast), > 300 µM.

`CCCCCCCC[n+]1ccc(C(=O)N/N=C/c2ccc[n+](CCCCCCCC)c2)cc1` (as salt: phosphate) [Compound 16, 1-Octyl-3-((2-(1-octylpyridin-1-ium-4-carbonyl)hydrazono)methyl)pyridin-1-ium Hexafluorophosphate]: the melting point fell in the range of 58 to 59 °C.

In turn, `CCCCCCCCC[n+]1ccc(C(=O)NN=Cc2ccc[n+](CCCCCCCCC)c2)cc1.[I-].[I-]` [Compound 10, 1-Nonyl-3-((2-(1-nonylpyridin-1-ium-4-carbonyl)hydrazono)methyl)pyridin-1-ium Iodide] displayed a melting point of 76 to 78 °C. The molecule further came in with an IC50 with A549 lung cancer cells (48 h) of 55.6 µM. In the data set with H1299 lung cancer cells (48 h), this molecule gave a concentration for half-maximal inhibition (IC50) of 63.1 µM. Besides, in the data set with H661 lung cancer cells (48 h), 60.1 µM corresponded to half-maximal inhibition (IC50). Moreover, in the data set on human dermal fibroblasts, the IC50 is > 300 µM.

In turn, `CCCCCCCCCC[n+]1ccc(C(=O)N/N=C/c2ccc[n+](CCCCCCCCCC)c2)cc1` (as salt: phosphate) [Compound 22, 1-Decyl-3-((2-(1-decylpyridin-1-ium-4-carbonyl)hydrazono)methyl)pyridin-1-ium Hexafluorophosphate] displayed a melting point of 42 to 44 °C.

Turning to `CCCCCCCCC[n+]1ccc(C(=O)NN=Cc2ccc[n+](CCCCCCCCC)c2)cc1` [Compound 20, 1-Nonyl-3-((2-(1-nonylpyridin-1-ium-4-carbonyl)hydrazono)methyl)pyridin-1-ium Tetrafluoroborate], the IC50 in the data set on A549 lung cancer cells (Homo sapiens, A549, 48 h) was 31.4 µM; in the data set on H1299 lung cancer cells (48 h) it was 32.6 µM; in the data set on H661 lung cancer cells (48 h), 33 µM; in the data set with human dermal fibroblasts (Homo sapiens, Fibroblast), > 300 µM.

As for `CCCCCCCCC[n+]1ccc(C(=O)NN=Cc2ccc[n+](CCCCCCCCC)c2)cc1` [Compound 21, 1-Nonyl-3-((2-(1-nonylpyridin-1-ium-4-carbonyl)hydrazono)methyl)pyridin-1-ium Trifluoroacetate], the 50% inhibitory concentration (IC50) is 33.5 µM with A549 lung cancer cells (48 h), 28 µM with H1299 lung cancer cells (48 h), 19.4 µM with H661 lung cancer cells (48 h) and > 300 µM in the data set on human dermal fibroblasts.

Consider `CCCCCCCCCCCCCCCCCC[n+]1ccc(C(=O)NN=Cc2ccc[n+](CCCCCCCCCCCCCCCCCC)c2)cc1` [Compound 36, 1-Octadecyl-3-((2-(1-octadecylpyridin-1-ium-4-carbonyl)hydrazono)methyl)pyridin-1-ium Trifluoroacetate], for which the IC50 in the data set with A549 lung cancer cells (48 h) is 920 µM; in the data set on H1299 lung cancer cells (48 h), 947 µM; with H661 lung cancer cells (48 h) it was 904 µM; with human dermal fibroblasts it was > 1000 µM.

As for `N.N.[Cl][Pt][Cl]` [Cisplatin, cisplatin, reference compound], the concentration for half-maximal inhibition (IC50) was 23 µM in the data set with A549 lung cancer cells (48 h), 18 µM with H1299 lung cancer cells (48 h), 32 µM with H661 lung cancer cells (48 h) and > 100 µM in the data set on human dermal fibroblasts.

Consider `CCCCCCCCCCCCCC[n+]1ccc(C(=O)NN=Cc2ccc[n+](CCCCCCCCCCCCCC)c2)cc1` [Compound 30, 1-Tetradecyl-3-((2-(1-tetradecylpyridin-1-ium-4-carbonyl)hydrazono)methyl)pyridin-1-ium Trifluoroacetate], for which the IC50 in the data set on A549 lung cancer cells (48 h) was 38.6 µM; with H1299 lung cancer cells (48 h), 38.5 µM; with H661 lung cancer cells (48 h), 41.9 µM; in the data set on human dermal fibroblasts, > 300 µM.

Turning to `CCCCCCCCCCCCCC[n+]1ccc(C(=O)NN=Cc2ccc[n+](CCCCCCCCCCCCCC)c2)cc1` [Compound 29, 1-Tetradecyl-3-((2-(1-tetradecylpyridin-1-ium-4-carbonyl)hydrazono)methyl)pyridin-1-ium Tetrafluoroborate], the IC50 in the data set on A549 lung cancer cells (Homo sapiens, A549, 48 h) was 42.1 µM; in the data set with H1299 lung cancer cells (Homo sapiens, NCI-H1299, 48 h), 44.6 µM; in the data set on H661 lung cancer cells (Homo sapiens, NCI-H661, 48 h), 46.8 µM; in the data set on human dermal fibroblasts (Homo sapiens, Fibroblast), > 300 µM.

With `CCCCCCCC[n+]1ccc(C(=O)NN=Cc2ccc[n+](CCCCCCCC)c2)cc1` [Compound 17, 1-Octyl-3-((2-(1-octylpyridin-1-ium-4-carbonyl)hydrazono)methyl)pyridin-1-ium Tetrafluoroborate], the IC50 was 69.1 µM in the data set with A549 lung cancer cells (Homo sapiens, A549, 48 h); 66 µM with H1299 lung cancer cells (Homo sapiens, NCI-H1299, 48 h); 61.2 µM in the data set on H661 lung cancer cells (Homo sapiens, NCI-H661, 48 h); > 300 µM in the data set on human dermal fibroblasts (Homo sapiens, Fibroblast).

The IC50 is the concentration at which inhibition is half-maximal. A higher IC50 goes with lower potency. Broadly, the melting point is the temperature of the solid-liquid transition.

(Values after PMC8508903, “Novel Dipyridinium Lipophile-Based Ionic Liquids Tethering Hydrazone Linkage: Design, Synthesis and Antitumorigenic Study” (International Journal of Molecular Sciences, 2021).)
